Patent US20140096445A1, “METHOD OF CULTIVATION IN WATER DEFICIT CONDITIONS” (SYNGENTA PARTICIPATIONS AG, priority 2011, published 2014)

Key:
corn [1] = assay: Sprinkler irrigation management field test, full vs deficit irrigation, Examples 9-10; type: in vivo; details: 261 gai/ha, 60% irrigated deficit
Method: A completely random test design (split plot) was conducted using Sprinkler Irrigation. This was an irrigation management test to study treatment effects on yield under full irrigation and deficit irrigation conditions. The field study was set up with four replications and tested on silt loam soil. Overhead sprinkler irrigation and overhead sprinkler chemigation was used in this study. Each plot was 4 rows wide (3 meters) by 9.1 meters long. Soil water status was monitored throughout the growing season using soil moisture sensors. Corn seed was planted with a precision planter at a depth of 2 inches and rows spaced at 30 inches. The planting population was 30,000 seeds per acre. Testing parameters, irrigation levels, and harvesting were conducted according to the University of Nebraska experimental procedure (see, e.g.,: Irmak, S, D. Z. Haman, and R. Bastug. Determination of Crop Water Stress Index for irrigation Timing and Yield Estimation of Corn. 2000. Agronomy Journal. 92:1221-1227). Moisture levels, irrigation levels, and plant health were measured throughout the growing season. Climatic variables were measured (air temperature, rainfall, solar and net radiation, relative humidity, rainfall, wind speed and direction) throughout the season. Irrigation for the fully irrigated treatments was scheduled according crop need based on soil water measurements. The deficit irrigation treatments were scheduled at approximately 60% of the fully irrigated plots (1.2 inches/acre vs. 2 inches of water/acre, respectively). Volumetric soil water content was measured on a weekly basis throughout the crop season to determine total water use. Maintenance crop protection products were applied as needed to manage weeds & pests throughout the season for all treatments including the control. Azoxystrobin (Quadris) was applied via overhead sprinkler irrigation at 261 grams active ingredient/hectare or by foliar application (tractor mounted sprayer) at 261 grams active ingredient/hectare at approximately V6 & R1 stages of the corn. Crop yield from each replication was recorded after harvest and adjusted to 15% moisture content.

corn [2] = assay: Lateral-move sprinkler irrigation field study, 112 day maturity corn hybrid, Examples 24-25; type: in vivo; details: 250 gai/ha, 60% irrigated deficit
Method: Testing Procedure: A sprinkler irrigation field study was conducted on a deep silt loam soil using a 112 day maturity corn hybrid. This trial was conducted to quantify the impact of azoxystrobin and trinexapac-ethyl on grain yield, and water productivity of corn under limited (deficit) and fully-irrigated settings. The study utilized a lateral-move sprinkler irrigation (LMS) system. The study was replicated three times in an […]. Each main plot was approximately 185 sq. meters. Irrigation control panels, chemical injection pumps, and filters were housed at the irrigation well house to manage irrigation and chemigation events.
Soil water status was monitored throughout the growing season using soil moisture sensors. Corn seed was planted with a precision planter at a depth of 2 inches and rows spaced at 30 inches. The planting population was 30,000 seeds per acre. Testing parameters, and irrigation levels were conducted according to the Kansas State University experimental procedure [see e.g., (1) Lamm, F. R., A. J. Schlegel, and G. A. Clark. 2003. Development of a Best Management Practice for Nitrogen Fertigation of Corn Using SDI. Appl. Engr in Agric. and (2) Lamm, F. R., H. L. Manges, L. R. Stone, A. H. Khan, and D. H. Rogers. 1995. Water requirement of subsurface drip-irrigated corn in northwest Kansas. Trans. ASAE, 38(2):441-448.]. Moisture levels, irrigation levels, evapotranspiration, and plant health were measured throughout the growing season. Climatic variables were measured (air temperature, rainfall, solar and net radiation, relative humidity, rainfall, wind speed and direction) throughout the season. Irrigation for the fully irrigated treatments was scheduled according to need by a climatic water budget using calculated evapotranspiration as a withdrawal and with rainfall and irrigation as deposits. Irrigation amounts for each event for the fully irrigated plots were generally 0.96 inches for each event. The deficit irrigation treatments were scheduled at approximately 60% of the fully irrigated plots. Volumetric soil water content was measured in one-foot increments to a depth of 8 ft on an approximately weekly basis throughout the crop season to determine total water use. Crop water use was calculated as the sum of irrigation, precipitation and changes in soil water between the initial and final soil water sampling dates. Water productivity (WUE) was calculated as the crop yield divided by the seasonal water use (Water Productivity (WP)=Yield/ETc). […] Crop yield from each replication was recorded after harvest and adjusted to 15% moisture content. Corn yield components of crop grain yield, plants/area, ears/plant, and kernel weight were measured by hand harvesting a representative sample.

SMILES	Yield (corn [1]; foliar-applied (V6 & R1))	Azoxystrobin % Yield Increase over 60% Untr. (corn [1]; foliar-applied)	Azoxystrobin % Yield Increase over 100% Untr. (corn [1]; foliar-applied)	Yield (corn [1]; sprinkler chemigated (V6 & R1))	Azoxystrobin % Yield Increase over 60% Untr. (corn [1]; sprinkler chemigated)	Azoxystrobin % Yield Increase over 100% Untr. (corn [1]; sprinkler chemigated)	% IWUE Increase over Untr./60% irr. (corn [2])	% Yield Increase over Untr./60% irr. (corn [2])	IWUE (water productivity) (corn [2])	Yield (corn [2])
CO/C=C(/C(=O)OC)c1ccccc1Oc1cc(Oc2ccccc2C#N)ncn1 [Azoxystrobin, azoxystrobin]	196 Bu./acre	+3% Incr.	+4% Incr.	197 Bu./acre	+4% Incr.	+5% Incr.				
CCOC(=O)C1CC(=O)C(=C(O)C2CC2)C(=O)C1 (stereo not shown) [TXP, trinexapac-ethyl]							+5% over	+3.5% over	484 lbs/acre inch	209 Bu./acre
